Experimental data taken from US7622476B2, “Methods of using 1-allyl ergot alkaloid derivatives to treat migraines” (priority 2002, dated 2009).
Read-outs that look alike come from different tables or passages of the source. Marks after values point to notes of the source that are not given here.

How the values were obtained:
[1] = test system: 5-HT2B receptors; experiment: Function test based on 5-HT2B receptor tissue (pig pulmonary artery, 5-HT-induced relaxation); format: cell-based; settings: for 5-HT2B pA2 value: antagonism of 5-HT-induced relaxation, antagonist conc. (nM)
Procedure: The test was an in vitro function test to characterize 5-HT2B receptors in a pig's pulmonary artery. The pig's pulmonary artery was prepared as follows: Small branches were dissected from the pulmonary artery and cautiously freed of organ tissue and connective tissue. Up to six rings of the artery (length 2-3 mm and width 1.5-2 mm) were hung in horizontal orientation between two L-shaped platinum hooks (150 μm in diameter) and fixed in an organ bath containing 10 ml of modified Krebs-Henseleit buffer composed as follows: 118 mM NaCl, 4.7 mM KCl, 2.5 mM CaCl2, 1.2 mM MgSO4, 1.2 mM KH2PO4, 25 mM NaHCO3, and 11 mM D-glucose. A continuous flow of a gas mixture of 95% O2 and 5% CO2 passed through the solution which was kept at a constant temperature of 35° C. The preparations were connected to an isometric power converter (Hugo Sachs Elektronik, March, Germany), and voltage changes were continuously recorded. The constant voltage in stationary condition was adjusted to 20 mN at the beginning of each experiment. During an initial stabilization period of 60 minutes, the bath medium was replaced every 20 minutes and the voltage was repeatedly adjusted to 20 mN. The artery preparations were stimulated at 45-minute intervals once with KCl (30 mM) and three times with prostaglandin-F2α (PGF2α, 3 μM) until the response by contraction was visible. The undamaged condition of the endothelium was evaluated functionally by measuring the extent of endothelium-dependent relaxation following application of bradykinin (10 nM). After the third PGF2α-induced contraction had stabilized, the relaxation response was examined for 5-HT by determining a cumulative concentration-response curve in the absence and presence of the antagonist. […].
The relaxation response to the test compound was examined using the same method as with 5-HT to test for agonistic activity. The concentration of the agonist was increased in increments at the time when the response signal had reached a plateau. The plateau was typically reached within 2 to 4 minutes. The relaxation effects were expressed as a percentage of the PGF2α-induced contraction. The antagonists were added 30 minutes before the recording of the agonist concentration response curves started. The effects of the antagonists were examined in ring segments that were adjacent to the reference segments.

[2] = biological target: T1, 5-HT2A receptors (Rattus norvegicus, UniProt P14842); experiment: Function test based on 5-HT2A receptor tissue (rat caudal artery, 5-HT concentration-response curves); format: cell-based; settings: for 5-HT2A pA2 value: rat caudal artery without endothelium, antagonism of 5-HT, antagonist conc. (nM)
T1 construct: characterizing 5-HT2A receptors in rat's caudal arteries; from tissue; host or cells: rat anterior caudal artery segments, endothelium stripped (male Wistar rats)
T1 sequence (P14842 whole entry): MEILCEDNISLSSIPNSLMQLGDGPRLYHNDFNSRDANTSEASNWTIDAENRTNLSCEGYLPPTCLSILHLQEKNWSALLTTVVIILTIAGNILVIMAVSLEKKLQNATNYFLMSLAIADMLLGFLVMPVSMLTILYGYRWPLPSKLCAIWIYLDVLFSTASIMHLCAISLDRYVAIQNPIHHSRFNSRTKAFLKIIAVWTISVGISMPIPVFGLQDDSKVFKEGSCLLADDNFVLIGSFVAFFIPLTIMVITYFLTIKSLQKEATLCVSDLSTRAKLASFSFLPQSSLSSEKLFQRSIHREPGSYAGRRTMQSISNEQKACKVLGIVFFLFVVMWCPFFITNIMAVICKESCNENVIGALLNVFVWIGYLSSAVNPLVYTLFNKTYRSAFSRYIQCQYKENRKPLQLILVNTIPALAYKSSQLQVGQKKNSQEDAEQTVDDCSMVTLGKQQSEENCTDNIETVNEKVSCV
From the text: The example below describes an in-vitro function test for characterizing 5-HT2A receptors in rat's caudal arteries.
Male Wistar rats (250-300 g) were killed by suffocation. The anterior caudal artery was dissected fast and cleared of attached connective tissue. A stainless steel wire (0.3 mm in diameter) was introduced into the artery to strip off the endothelium. […] A continuous flow of a gas mixture of 95% O2 and 5% CO2 passed through the solution which was kept at a constant temperature of 37° C. […] The constant voltage was adjusted to 5 mN at the beginning of each experiment. During an equilibrium period of 120 minutes, the preparations were stimulated once after 60 minutes with 5-HT (1 μM).
Three cumulative concentration-response curves (CRC) were determined for each artery segment in these experiments for the study of partial agonists. The first CRC was obtained for 5-HT, the second that followed 60 minutes later for the partial agonist. Finally, the third CRC was obtained 10-15 minutes after the second CRC without washing with 5-HT and using the highest agonist concentration (0.3-3 μM). Additional experiments determined two CRCs at an interval of 60 minutes as described above. The first CRC was determined for 5-HT. The second CRC was determined to test the partial agonist in the presence of ketanserin. The preparations were incubated for 30 minutes with a ketanserin solution (3 nM).
The axial shift to the right of the curves determined in the presence of ketanserin was compared to the shift determined for the respective control preparation in the absence of ketanserin. In these experiments using ketanserin, two separate CRCs to 5-HT were obtained from each artery segment at a 90-minute interval. For the antagonists, the preparations were incubated 60 minutes prior to determining the second curve. Prazosin (0.1 μM) and cocaine (6 μM) were present in the solution during these experiments to block the α1-adrenoceptors and neuronal absorption of 5-HT.

[3] = biological target: T1, 5-HT2A receptors; settings: reference compounds marked *; values from H. Pertz (1996) Planta Med. 62, pp. 387-392; cited from earlier work

Structure (SMILES) | 5-HT2B pA2 value [1] | also measured
C=CCn1cc2c3c(cccc31)[C@H]1C[C@@H](C(=O)N[C@]3(C)O[C@@]4(O)C5CCCN5C(=O)[C@H](Cc5ccccc5)N4C3=O)CN(C)[C@@H]1C2 (stereo partly shown) [1-Allyl dihydroergotamine] | 9.30 | –
C=CCn1cc2c3c(cccc31)C1=C[C@@H](C(=O)N[C@]3(C)O[C@@]4(O)C5CCCN5C(=O)[C@H](Cc5ccccc5)N4C3=O)CN(C)[C@@H]1C2 (stereo partly shown) [1-Allyl ergotamine] | – | 5-HT2B -logKp, calculated according to Kenakin ([1]; printed in the pA2 column, marked **): 9.11**
C=CCn1cc2c3c(cccc31)[C@H]1C[C@@H](C)CN(C)[C@@H]1C2 [1-Allyl festuclavine] | 6.74 | 5-HT2A pA2 value [2]: 7.89
C=CCn1cc2c3c(cccc31)C1=CC(NC(=O)N(CC)CC)CN(C)C1C2 (stereo not shown) [1-Allyl lisuride] | 8.17 | –
C=CCn1cc2c3c(cccc31)[C@@H]1C[C@H](NC(=O)N(CC)CC)CN(C)[C@H]1C2 [1-Allyl terguride, 1-allyl-(5R,8S,10R)-terguride] | 7.67 | Kb [2]: 2 nM
C=CCn1cc2c3c(cccc31)C1=C[C@@H](CO)CN(C)[C@@H]1C2 [1-Allyl-lysergol, 1-Allyl lysergol] | 7.61 | Kb [2]: 3.55 nM
CCN(CC)C(=O)N[C@H]1C=C2c3cccc4[nH]cc(c34)C[C@H]2N(C)C1 [Lisuride, reference compound] | 10.32 | –
CN1C[C@H](CO)C=C2c3cccc4[nH]cc(c34)C[C@H]21 [Lysergol] | – | 5-HT2A pA2 value [3]: 6.88
CCN(CC)C(=O)N[C@H]1C[C@@H]2c3cccc4[nH]cc(c34)C[C@H]2N(C)C1 [Terguride, reference compound] | 8.49 | 5-HT2A pA2 value [2]: 8.38
